“Also recorded” adds a separate entry of the source.
Assay: Response of QAR and PAR to metal ions at pH 7 (absorbance spectrum, colour)
Assay type: binding
Protocol: The response of QAR to different metal ions was measured to determine its selectivity and compared to another sensor (PAR), which has a similar structure. Samples were prepared with different metal standards at pH 7, and the absorbance spectrum of each sample was recorded (FIG. 6). Also, photographs of the samples are provided below to allow for a visual comparison (FIG. 7).
The spectra of QAR were compared to the spectrum of the free dyes, and the general response of QAR at pH 7 can be described as follows: […]

Compound: Oc1ccc(N=Nc2ccccn2)c(O)c1 [PAR, 4-(2-pyridylazo)resorcinol, reference compound]
- response to Ca(II) (spectrum compared to free dye, colour of complex): did not undergo a spectral change
- response to Cd(II) (spectrum compared to free dye, colour of complex): orange complexes
- response to Co(II) (spectrum compared to free dye, colour of complex): magenta complex
- response to Cu(II) (spectrum compared to free dye, colour of complex): magenta complex
- response to Fe(III) (spectrum compared to free dye, colour of complex): magenta complex; also recorded: Aggregation occurs
- response to Hg(II) (spectrum compared to free dye, colour of complex): brown, globular suspension
- response to K(I) (spectrum compared to free dye, colour of complex): did not undergo a spectral change
- response to Mg(II) (spectrum compared to free dye, colour of complex): did not undergo a spectral change
- response to Na(I) (spectrum compared to free dye, colour of complex): did not undergo a spectral change
- response to Ni(II) (spectrum compared to free dye, colour of complex): orange complexes
- response to Pb(II) (spectrum compared to free dye, colour of complex): magenta complex
- response to Zn(II) (spectrum compared to free dye, colour of complex): orange complexes

From US11275071B2, “Sensor dyes for real-time sensing of metal ions in aqueous environments” (UWM Research Foundation, Inc., priority 2015, dated 2022)
